Measured values as given in patent US12077503B2, “Substituted cyclic amides and their use as herbicides” (FMC CORPORATION, priority 2015, dated 2024).

Tests used:
Type in all cases: in vivo
rice (Oryra sativa) = assay: Test B flooded paddy test; settings: Flood, 0 to 100 scale where 0 is no effect and 100 is complete control, 13 to 15 d
Method in brief: (§1)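 Plants at 2-leaf stage flooded to 3 cm above soil, with compounds applied directly to paddy water and that depth maintained. Plants kept in greenhouse 13–15 d. Visual rating versus controls on a 0 (no effect) to 100 (complete control) scale.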

[1] = test system: ducksalad (Heteranthera limosa); assay: Test B flooded paddy test; settings: Flood, 0 to 100 scale where 0 is no effect and 100 is complete control, 13 to 15 d
Method in brief: as §1

[2] = test system: barnyardgrass (Echinochloa crus-galli); assay: Test B flooded paddy test; settings: Flood, 0 to 100 scale where 0 is no effect and 100 is complete control, 13 to 15 d
Method in brief: as §1

[3] = test system: sedge, umbrella (small-flower umbrella sedge, Cyperus difformis); assay: Test B flooded paddy test; settings: Flood; for Plant response rating, Sedge, Umbrella: 0 to 100 scale where 0 is no effect and 100 is complete control, 13 to 15 d
Method in brief: as §1

[4] = test system: pigweed (Amaranthus retroflexus); assay: Test A postemergence
Method in brief: (§2)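 In a loam soil and sand blend, planted seeds got a preemergence directed soil spray, and young plants at the one- to two-leaf stage, 2–10 cm high, got a postemergence application; ~10 d greenhouse hold; injury rated visually, 0 = none, 100 = complete control.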

[5] = test system: crabgrass, large (Digitaria sanguinalis); assay: Test A postemergence
Method in brief: as §2

[6] = test system: velvetleaf (Abutilon theophrasti); assay: Test A postemergence
Method in brief: as §2

corn (Zea mays) [7] = assay: Test A postemergence
Method in brief: as §2

[8] = test system: giant foxtail (Setaria faberii); assay: Test A postemergence
Method in brief: as §2

[9] = test system: morningglory (Ipomoea spp.); assay: Test A postemergence
Method in brief: as §2

[10] = test system: wheat (Triticum aestivum); assay: Test A postemergence
Method in brief: as §2

[11] = test system: barnyardgrass (Echinochloa crus-galli); assay: Test A postemergence
Method in brief: as §2

[12] = test system: pigweed (Amaranthus retroflexus); assay: Test A preemergence; settings: for Plant response rating, Pigweed: preemergence; for Pigweed plant response rating (0 to 100 scale): Preemergence, 0 is no effect, 100 is complete control
[13] = test system: crabgrass, large (Digitaria sanguinalis); assay: Test A preemergence; settings: for Plant response rating, Crabgrass, Large: preemergence; for Crabgrass, Large plant response rating (0 to 100 scale): Preemergence, 0 is no effect, 100 is complete control
Method in brief: as §2

[14] = test system: velvetleaf (Abutilon theophrasti); assay: Test A preemergence; settings: for Plant response rating, Velvetleaf: preemergence; for Velvetleaf plant response rating (0 to 100 scale): Preemergence, 0 is no effect, 100 is complete control
Method in brief: as §2

corn (Zea mays) [15] = assay: Test A preemergence; settings: for Plant response rating, Corn: preemergence; for Corn plant response rating (0 to 100 scale): Preemergence, 0 is no effect, 100 is complete control
Method in brief: as §2

[16] = test system: giant foxtail (Setaria faberii); assay: Test A preemergence; settings: for Plant response rating, Foxtail, Giant: preemergence; for Foxtail, Giant plant response rating (0 to 100 scale): Preemergence, 0 is no effect, 100 is complete control
Method in brief: as §2

[17] = test system: morningglory (Ipomoea spp.); assay: Test A preemergence; settings: for Plant response rating, Morningglory: preemergence; for Morningglory plant response rating (0 to 100 scale): Preemergence, 0 is no effect, 100 is complete control
Method in brief: as §2

[18] = test system: wheat (Triticum aestivum); assay: Test A preemergence; settings: for Plant response rating, Wheat: preemergence; for Wheat plant response rating (0 to 100 scale): Preemergence, 0 is no effect, 100 is complete control
Method in brief: as §2

[19] = test system: barnyardgrass (Echinochloa crus-galli); assay: Test A preemergence; settings: for Plant response rating, Barnyardgrass: preemergence; for Barnyardgrass plant response rating (0 to 100 scale): Preemergence, 0 is no effect, 100 is complete control
Method in brief: as §2

[20] = 500 g ai/ha, postemergence, 0 to 100 scale, 0 no effect, 100 complete control
[21] = Postemergence, 125 g ai/ha, visual injury, 0 to 100 scale (0 no effect, 100 complete control), approx. 10 d
[22] = 125 g ai/ha, 0 to 100 scale (0 no effect, 100 complete control)
[23] = 125 g ai/ha, postemergence, visual injury after approximately 10 d, 0 to 100 scale (0 no effect, 100 complete control)
[24] = 500 g ai/ha, postemergence, visual injury, 0 to 100 scale (0 no effect, 100 complete control), approx. 10 d
[25] = 125 g ai/ha, visual rating after approx. 10 d, 0 to 100 scale where 0 is no effect and 100 is complete control
[26] = 500 g ai/ha, 0 to 100 scale, 0 = no effect, 100 = complete control

O=C1NCC(c2ccc(-c3ccccc3)cc2)C1C(=O)Nc1ccccc1C(F)(F)F (racemic) [Compound 367]
0: Plant response rating, Rice (rice (Oryra sativa); 1000 g ai/ha) | Plant response rating, Ducksalad ([1]; 1000 g ai/ha) | Plant response rating, Barnyardgrass ([2]; 1000 g ai/ha) | Plant response rating, Sedge, Umbrella ([3]; 1000 g ai/ha) | Plant response rating, Pigweed [4, 20] | Plant response rating, Pigweed [4, 21] | Plant response rating, Crabgrass, Large [5, 20] | Plant response rating, Crabgrass, Large [5, 21] | Plant response rating, Velvetleaf [6, 20] | Plant response rating, Velvetleaf [6, 21] | Plant response rating, Corn (corn (Zea mays) [7]; [20]) | Plant response rating, Corn (corn (Zea mays) [7]; [21]) | Plant response rating, Foxtail, Giant [8, 20] | Plant response rating, Foxtail, Giant [8, 21] | Plant response rating, Morningglory [9, 20] | Plant response rating, Morningglory [9, 21] | Plant response rating, Wheat [10, 20] | Plant response rating, Wheat [10, 21] | Plant response rating, Barnyardgrass [11, 20] | Plant response rating, Barnyardgrass [11, 21] | Plant response rating, Pigweed [12, 22] | Pigweed plant response rating (0 to 100 scale) ([12]; 500 g ai/ha) | Plant response rating, Crabgrass, Large [13, 22] | Crabgrass, Large plant response rating (0 to 100 scale) ([13]; 500 g ai/ha) | Plant response rating, Velvetleaf [14, 22] | Velvetleaf plant response rating (0 to 100 scale) ([14]; 500 g ai/ha) | Plant response rating, Corn (corn (Zea mays) [15]; [22]) | Corn plant response rating (0 to 100 scale) (corn (Zea mays) [15]; 500 g ai/ha) | Plant response rating, Foxtail, Giant [16, 22] | Foxtail, Giant plant response rating (0 to 100 scale) ([16]; 500 g ai/ha) | Plant response rating, Morningglory [17, 22] | Morningglory plant response rating (0 to 100 scale) ([17]; 500 g ai/ha) | Plant response rating, Wheat [18, 22] | Wheat plant response rating (0 to 100 scale) ([18]; 500 g ai/ha) | Plant response rating, Barnyardgrass [19, 22] | Barnyardgrass plant response rating (0 to 100 scale) ([19]; 500 g ai/ha)

O=C1NCC(c2cccc(O)c2)C1C(=O)Nc1ccccc1C(F)(F)F (racemic) [Compound 716]
0: Plant response rating, Rice (rice (Oryra sativa); 250 g ai/ha) | Plant response rating, Ducksalad ([1]; 250 g ai/ha) | Plant response rating, Barnyardgrass ([2]; 250 g ai/ha) | Sedge, Umbrella plant response rating ([3]; 250 g ai/ha, scale of 0 to 100 where 0 is no effect and 100 is complete control) | Plant response rating, Pigweed [4, 23] | Plant response rating, Pigweed [4, 24] | Plant response rating, Crabgrass, Large [5, 23] | Plant response rating, Crabgrass, Large [5, 24] | Plant response rating, Velvetleaf [6, 23] | Plant response rating, Velvetleaf [6, 24] | Plant response rating, Corn (corn (Zea mays) [7]; [23]) | Plant response rating, Corn (corn (Zea mays) [7]; [24]) | Plant response rating, Foxtail, Giant [8, 23] | Plant response rating, Foxtail, Giant [8, 24] | Plant response rating, Morningglory [9, 23] | Plant response rating, Morningglory [9, 24] | Plant response rating, Wheat [10, 23] | Plant response rating, Wheat [10, 24] | Plant response rating, Barnyardgrass [11, 23] | Plant response rating, Barnyardgrass [11, 24] | Plant response rating, Pigweed [12, 25] | Plant response rating, Pigweed [12, 26] | Plant response rating, Crabgrass, Large [13, 25] | Plant response rating, Crabgrass, Large [13, 26] | Plant response rating, Velvetleaf [14, 25] | Plant response rating, Velvetleaf [14, 26] | Plant response rating, Corn (corn (Zea mays) [15]; [25]) | Plant response rating, Corn (corn (Zea mays) [15]; [26]) | Plant response rating, Foxtail, Giant [16, 25] | Plant response rating, Foxtail, Giant [16, 26] | Plant response rating, Morningglory [17, 25] | Plant response rating, Morningglory [17, 26] | Plant response rating, Wheat [18, 25] | Plant response rating, Wheat [18, 26] | Plant response rating, Barnyardgrass [19, 25] | Plant response rating, Barnyardgrass [19, 26]

O=C1NCC(c2ccc(F)c(F)c2)C1C(=O)Nc1n[nH]cc1Br (racemic) [Compound 361]
0: Plant response rating, Rice (rice (Oryra sativa); 250 g ai/ha) | Plant response rating, Ducksalad ([1]; 250 g ai/ha) | Plant response rating, Barnyardgrass ([2]; 250 g ai/ha) | Plant response rating, Sedge, Umbrella ([3]; 250 g ai/ha) | Plant response rating, Pigweed [4, 20] | Plant response rating, Pigweed [4, 21] | Plant response rating, Crabgrass, Large [5, 20] | Plant response rating, Crabgrass, Large [5, 21] | Plant response rating, Velvetleaf [6, 20] | Plant response rating, Velvetleaf [6, 21] | Plant response rating, Corn (corn (Zea mays) [7]; [20]) | Plant response rating, Corn (corn (Zea mays) [7]; [21]) | Plant response rating, Foxtail, Giant [8, 20] | Plant response rating, Foxtail, Giant [8, 21] | Plant response rating, Morningglory [9, 20] | Plant response rating, Morningglory [9, 21] | Plant response rating, Wheat [10, 20] | Plant response rating, Wheat [10, 21] | Plant response rating, Barnyardgrass [11, 20] | Plant response rating, Barnyardgrass [11, 21] | Plant response rating, Pigweed [12, 22] | Pigweed plant response rating (0 to 100 scale) ([12]; 500 g ai/ha) | Plant response rating, Crabgrass, Large [13, 22] | Crabgrass, Large plant response rating (0 to 100 scale) ([13]; 500 g ai/ha) | Plant response rating, Velvetleaf [14, 22] | Velvetleaf plant response rating (0 to 100 scale) ([14]; 500 g ai/ha) | Plant response rating, Corn (corn (Zea mays) [15]; [22]) | Corn plant response rating (0 to 100 scale) (corn (Zea mays) [15]; 500 g ai/ha) | Plant response rating, Foxtail, Giant [16, 22] | Foxtail, Giant plant response rating (0 to 100 scale) ([16]; 500 g ai/ha) | Plant response rating, Morningglory [17, 22] | Morningglory plant response rating (0 to 100 scale) ([17]; 500 g ai/ha) | Plant response rating, Wheat [18, 22] | Wheat plant response rating (0 to 100 scale) ([18]; 500 g ai/ha) | Plant response rating, Barnyardgrass [19, 22] | Barnyardgrass plant response rating (0 to 100 scale) ([19]; 500 g ai/ha)
